In patent publication US6054318A, “Expression of the glucose oxidase gene in transgenic organisms” (Commonwealth Scientific And Industrial Research Organization, priority 1994, dated 2000):

Key:
[1] = system: Verticillium dahliae microsclerotia and mycelia; conditions: added to growth media; cited from earlier work
Rhyzoctonia solani = assay: In vitro growth of R. solani in PD broth, microtitre plate reader; assay type: cell-based; conditions: PD broth plus gluconic acid
Experimental: Glucose oxidase was examined in vitro for its ability to inhibit the growth of an Australian isolate of R. solani. Different concentrations of A. niger glucose oxidase suspended in potato dextrose broth and different amounts of filtrate from T. flavus 32908 and GOH-1 were inoculated with R. solani and fungal growth was monitored using a microtitre plate reader. Duplicates were performed for each experiment and the experiment was repeated twice. […] Growth inhibition curves for R. solani were calculated 26 hours after the start of fungal growth (FIG. 5). […] These values are approximately twice the glucose oxidase IC50 value determined for V. dahliae (2.2 μg/ml).

[2] = system: Talaromyces flavus glucose oxidase, wild type; conditions: T. flavus glucose oxidase; read-out: Km for β-D-glucose; cited from earlier work
[3] = molecular target: Aspergillus niger glucose oxidase, wild type (Aspergillus niger, UniProt P13006); conditions: A. niger glucose oxidase; read-out: Km for β-D-glucose; cited from earlier work
Aspergillus niger glucose oxidase, wild type, sequence (P13006 17-605): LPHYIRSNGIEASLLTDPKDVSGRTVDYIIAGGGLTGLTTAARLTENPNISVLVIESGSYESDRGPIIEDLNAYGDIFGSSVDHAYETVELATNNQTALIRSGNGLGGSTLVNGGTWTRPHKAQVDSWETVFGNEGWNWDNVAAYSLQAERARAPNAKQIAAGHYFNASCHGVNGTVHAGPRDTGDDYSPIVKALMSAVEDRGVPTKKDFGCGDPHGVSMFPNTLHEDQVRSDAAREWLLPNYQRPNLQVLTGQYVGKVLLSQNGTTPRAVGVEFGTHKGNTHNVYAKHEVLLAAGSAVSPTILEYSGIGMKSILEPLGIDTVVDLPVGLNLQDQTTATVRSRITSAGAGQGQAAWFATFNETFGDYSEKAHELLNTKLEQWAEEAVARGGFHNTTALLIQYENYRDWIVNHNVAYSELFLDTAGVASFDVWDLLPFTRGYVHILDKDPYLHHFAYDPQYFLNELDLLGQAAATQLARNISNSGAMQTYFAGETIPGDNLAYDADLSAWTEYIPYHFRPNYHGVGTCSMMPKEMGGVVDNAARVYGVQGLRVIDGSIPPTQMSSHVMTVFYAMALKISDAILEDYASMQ

Compound: O=C(O)[C@H](O)[C@@H](O)[C@H](O)[C@H](O)CO [gluconic acid]
- inhibition of microsclerotial germination and mycelial growth [1]: did not cause inhibition
- growth profile of R. solani compared with PD broth alone (Rhyzoctonia solani): very similar

Compound: O=C[C@H](O)[C@@H](O)[C@H](O)[C@H](O)CO [glucose]
- inhibition of microsclerotial germination and mycelial growth [1]: did not cause inhibition

Compound: OO [hydrogen peroxide]
- inhibition of microsclerotial germination and mycelial growth [1]: inhibited microsclerotial germination and mycelial growth

Compound: OC[C@H]1O[C@@H](O)[C@H](O)[C@@H](O)[C@@H]1O [β-D-glucose]
- Km [2]: 10.9 mM
- Km [3]: 27 mM
